Experimental data published in PubChem BioAssay (NCI).
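GI50 marks 50% less growth. At the TGI there is no net growth.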

Legend:
Experiment in all cases: NCI anticancer screen, dose series, 384-well format
[1] = tested on: 786-0 renal
[2] = tested on: A498 renal
[3] = tested on: A549 NSCLC
[4] = tested on: ACHN renal
[5] = tested on: BT-549 breast
[6] = tested on: CAKI-1 renal
[7] = tested on: CCRF-CEM leukemia
[8] = tested on: COLO 205 colon
[9] = tested on: DU-145 prostate
[10] = tested on: EKVX NSCLC
[11] = tested on: HCC-2998 colon
[12] = tested on: HCT-116 colon
[13] = tested on: HCT-15 colon
[14] = tested on: HL-60(TB) leukemia
[15] = tested on: HOP-62 NSCLC
[16] = tested on: HOP-92 NSCLC
[17] = tested on: HS 578T breast
[18] = tested on: HT29 colon
[19] = tested on: IGROV1 ovarian
[20] = tested on: K-562 leukemia
[21] = tested on: KM12 colon
[22] = tested on: LOX IMVI melanoma
[23] = tested on: M14 melanoma
[24] = tested on: MALME-3M melanoma
[25] = tested on: MCF7 breast
[26] = tested on: MDA-MB-231 breast
[27] = tested on: MDA-MB-435 melanoma
[28] = tested on: MDA-MB-468 breast
[29] = tested on: MOLT-4 leukemia
[30] = tested on: NCI-H226 lung
[31] = tested on: NCI-H23 lung
[32] = tested on: NCI-H322M lung
[33] = tested on: NCI-H460 NSCLC
[34] = tested on: NCI-H522 lung
[35] = tested on: NCI/ADR-RES ovarian
[36] = tested on: OVCAR-3 ovarian
[37] = tested on: OVCAR-4 ovarian
[38] = tested on: OVCAR-5 ovarian
[39] = tested on: OVCAR-8 ovarian
[40] = tested on: PC-3 prostate
[41] = tested on: RPMI-8226 leukemia
[42] = tested on: RXF 393 renal
[43] = tested on: SF-268 CNS
[44] = tested on: SF-295 CNS
[45] = tested on: SF-539 CNS
[46] = tested on: SK-MEL-2 melanoma
[47] = tested on: SK-MEL-28 melanoma
[48] = tested on: SK-MEL-5 melanoma
[49] = tested on: SK-OV-3 ovarian
[50] = tested on: SN12C renal
[51] = tested on: SNB-19 CNS
[52] = tested on: SNB-75 CNS
[53] = tested on: SW-620 colon
[54] = tested on: T-47D breast
[55] = tested on: TK-10 renal
[56] = tested on: U251 glioblastoma
[57] = tested on: UACC-257 melanoma
[58] = tested on: UACC-62 melanoma
[59] = tested on: UO-31 renal

In the case of C[C@]12O[C@H](C[C@]1(O)CO)n1c3ccccc3c3c4c(c5c6ccccc6n2c5c31)CNC4=O, the GI50 [1] is reported as 31.3 nM, the TGI [1] is reported as 515 nM and the GI50 [2] is reported as < 10 nM. It also gave a TGI [2] of 1370 nM, a GI50 [3] of 76.3 nM and a TGI [3] of 1590 nM. For the same molecule, the GI50 [4] was < 10 nM, the TGI [4] was 1680 nM and the GI50 [5] was 12.3 nM. The TGI [5] was 213 nM, the GI50 [6] was < 10 nM and the TGI [6] was 228 nM. For the same molecule, the GI50 [7] was 11.3 nM, the TGI [7] was 39.7 nM and the GI50 [8] was 20.2 nM. The TGI [8] was 103 nM, the GI50 [9] was < 10 nM and the TGI [9] was 1620 nM. It also gave a GI50 [10] of 33.6 nM, a TGI [10] of 471 nM and a GI50 [11] of 153 nM. For the same molecule, the TGI [11] was 773 nM, the GI50 [12] was < 10 nM and the TGI [12] was 10300 nM. For the same molecule, the GI50 [13] was < 10 nM, the TGI [13] was 1300 nM and the GI50 [14] was < 10 nM. For the same molecule, the TGI [14] was 51.6 nM, the GI50 [15] was 44.5 nM and the TGI [15] was 646 nM. The GI50 [16] was 70.6 nM, the TGI [16] was 720 nM and the GI50 [17] was 33.9 nM. For the same molecule, the TGI [17] was 769 nM, the GI50 [18] was 212 nM and the TGI [18] was 10500 nM. The GI50 [19] was < 10 nM, the TGI [19] was 1150 nM and the GI50 [20] was 60.1 nM. The TGI [20] was 1610 nM, the GI50 [21] was < 10 nM and the TGI [21] was 212 nM. The GI50 [22] was 25.3 nM, the TGI [22] was 186 nM and the GI50 [23] was < 10 nM. For the same molecule, the TGI [23] was 155 nM, the GI50 [24] was < 10 nM and the TGI [24] was 79.5 nM. The GI50 [25] was 64.2 nM, the TGI [25] was 1330 nM and the GI50 [26] was 60.9 nM. The TGI [26] was 1540 nM, the GI50 [27] was < 10 nM and the TGI [27] was 1110 nM. For the same molecule, the GI50 [28] was 21.5 nM, the TGI [28] was 290 nM and the GI50 [29] was < 10 nM. It also gave a TGI [29] of 12.8 nM, a GI50 [30] of 57.4 nM and a TGI [30] of 734 nM. The GI50 [31] was 24.1 nM, the TGI [31] was 311 nM and the GI50 [32] was 584 nM. The TGI [32] was 2140 nM, the GI50 [33] was 34.8 nM and the TGI [33] was 1090 nM. For the same molecule, the GI50 [34] was < 10 nM, the TGI [34] was 111 nM and the GI50 [35] was 1200 nM. The TGI [35] was 2460 nM, the GI50 [36] was 157 nM and the TGI [36] was 1280 nM. The GI50 [37] was 1380 nM, the TGI [37] was 3200 nM and the GI50 [38] was 122 nM. The TGI [38] was 1900 nM, the GI50 [39] was 96.5 nM and the TGI [39] was 275 nM. It also gave a GI50 [40] of 100 nM, a TGI [40] of 1860 nM and a GI50 [41] of 11.6 nM. For the same molecule, the TGI [41] was 39.8 nM, the GI50 [42] was < 10 nM and the TGI [42] was 49.6 nM. For the same molecule, the GI50 [43] was 44.2 nM, the TGI [43] was 1400 nM and the GI50 [44] was 44.7 nM. For the same molecule, the TGI [44] was 1260 nM, the GI50 [45] was 24.2 nM and the TGI [45] was 276 nM. For the same molecule, the GI50 [46] was < 10 nM, the TGI [46] was 84.7 nM and the GI50 [47] was 35.8 nM. For the same molecule, the TGI [47] was 453 nM, the GI50 [48] was < 10 nM and the TGI [48] was 145 nM. For the same molecule, the GI50 [49] was < 10 nM, the TGI [49] was 627 nM and the GI50 [50] was < 10 nM. For the same molecule, the TGI [50] was 458 nM, the GI50 [51] was 341 nM and the TGI [51] was 1850 nM. The GI50 [52] was 143 nM, the TGI [52] was 1160 nM and the GI50 [53] was 41.6 nM. It also gave a TGI [53] of 1450 nM, a GI50 [54] of 456 nM and a TGI [54] of 4260 nM. The GI50 [55] was < 10 nM, the TGI [55] was 598 nM and the GI50 [56] was 290 nM. The TGI [56] was 1880 nM, the GI50 [57] was 395 nM and the TGI [57] was 1680 nM. The GI50 [58] was < 10 nM, the TGI [58] was 610 nM and the GI50 [59] was 14.9 nM. For the same molecule, the TGI [59] was 1160 nM.
